# Test results from publication PMC3083654, “Cytotoxic and Antimicrobial Activity of Pseudopterosins and seco-Pseudopterosins Isolated from the Octocoral Pseudopterogorgia elisabethae of San Andrés and Providencia Islands (Southwest Caribbean Sea)” (Marine Drugs, 2011).
# Like-named read-outs stand apart in the source and are kept apart here.
# What was measured:
# [1] = system: Enterococcus faecalis ATCC 10741; assay: Antimicrobial microdilution assay, E. faecalis; assay type: cell-based
# Method: (§1) Compounds isolated from P. elisabethae were tested against a panel of microorganisms including the bacteria Staphylococcus aureus ATCC 375, Enterococcus faecalis ATCC 10741, Pseudomonas aeruginosa ATCC 14210 and the yeast Candida albicans ATCC 14035. Bacterial strains were cultured in Luria-Bertani Broth (LB) and C. albicans was cultured in Sabouraud dextrose broth (SD), for 18 h at 37 °C and 220 rpm in a humidified incubator.
# (§2) The antimicrobial activity was determined by a microdilution method (IC50) in 96-well microtiter plates using LB media for bacteria and SD media for the yeast seeded liquid media. In all cases, a pre-inoculated dilution was made with fresh broth. A volume of 180 μL of each microorganism suspension was inoculated in each well (10^5 cells/mL) and mixed with 20 μL of treatment solutions. Stock solutions were prepared by dissolving pure compounds and controls in 20% DMSO and storing at 4 °C. Penicillin G (S. aureus), vancomycin (E. faecalis), gentamicin (P. aeruginosa) and nystatin (C. albicans) were used as positive controls and vehicle (DMSO + media) as blank. The final DMSO concentration used for dissolving the extracts was less than 20%. Controls and test compounds (PsG, PsP, PsQ, PsS, PsT, PsU, 3-O-Ac-PsU, seco-PsJ, seco-PsK and IMNGD) were assayed in duplicate for each of the following concentrations: 64.0, 32.0, 16.0, 4.0, 1.0, 0.25 and 0.06 μg/mL.
# (§3) Microplates were incubated for 24 h at 37 °C and optical density was recorded using a BioTek Synergy HT microplate reader to measure the absorbance at 600 nm. For each experiment, correction for background absorbance was made by subtracting the value for OD600 after the compounds were added (time 0 h). Percentages of microorganism survival relative to vehicle control wells (wells containing only microorganism and DMSO) were calculated. The IC50 of the controls were also determined in parallel experiments in order to control for the sensitivity of the standard test organisms.
# (§4) Data were normalized and analyzed using non-linear regression to elucidate IC50 values from sigmoidal dose-response curves. Comparison between cell lines and microorganisms used extra sum-of-squares F test to evaluate IC50 between data sets. P < 0.05 was considered as indicative of significance using GraphPad Software, Prism V. 5.0.
# [2] = system: Staphylococcus aureus ATCC 375; assay: Antimicrobial microdilution assay, S. aureus; assay type: cell-based; details: ATCC375, 24 h
# Method: as §1, §2, §3, §4
# [3] = system: HeLa (cervical cancer); assay: MTT cytotoxic assay, HeLa; assay type: cell-based; details: Homo sapiens, 48 h
# Method: (§5) The cell lines HeLa (cervical cancer), PC-3 (prostate cancer), HCT116 (colorectal cancer), MCF-7 (breast cancer) and normal human cell line BJ (skin fibroblasts) were used and maintained in DMEM with 5% of FBS and gentamicin 50 μg/mL. Cultures were held in 75 cm^2 culture flasks at 37 °C, 5% CO2 and 100% relative humidity, changing media at least twice a week.
# (§6) Cells were harvested, counted, and transferred into 96 well plates and incubated for 24 h prior to the addition of the test compounds. Test sample solutions (10 μL) at the desired dilutions were added to the wells containing the cells and incubated for 48 h. Microtitration colorimetric method of MTT reduction was used to determine surviving cells at the end of the treatment period.
# (§7) A solution of MTT (0.5 mg/mL) was prepared in PBS and 100 μL of this solution was added to each well after the removal of 100 μL of treatment solution. The plates were incubated at 37 °C for 4 h. The solution in each well, containing media, unmetabolized MTT, and dead cells, was removed by suction and 100 μL of DMSO was added to each well. The DMSO was mixed by pipetting and optical density was recorded using a BioTek Synergy HT microplate reader to measure the absorbance at 570 nm. Percentages of cell survival relative to vehicle control wells (wells containing only cells and DMSO) were calculated.
# (§8) Stock solutions (5 mg/mL) were prepared by dissolving pure compounds in DMSO and storing at 4 °C. Serial dilutions with culture media were prepared just prior to addition to test plates. The concentration of DMSO in wells was consistent across dilutions at 0.38% v/v. Staurosporine was used as the positive control and vehicle (DMSO + media) as blank. Control and test compounds (PsG, PsP, PsQ, PsS, PsT, PsU, 3-O-Ac-PsU, seco-PsJ, seco-PsK and IMNGD) were assayed in duplicate for each concentration and replicated for each cell line at concentrations of 5000, 1000, 500, 100, 50, 10, 5 and 1 nM for staurosporine and 0.1, 0.5, 1.0, 2.5, 5.0, 7.5, 10.0, and 20.0 μg/mL for compounds.
# as §4
# [4] = system: HCT116 (colorectal cancer); assay: MTT cytotoxic assay, HCT116; assay type: cell-based; details: Homo sapiens, HCT-116, HCT116, 48 h
# Method: as §5, §6, §7, §8, §4
# [5] = system: BJ (skin fibroblasts); assay: MTT cytotoxic assay, normal BJ cells; assay type: cell-based, human; details: 48 h
# Method: as §5, §6, §7, §8, §4
# [6] = system: MCF-7 (breast cancer); assay: MTT cytotoxic assay, MCF-7; assay type: cell-based; details: Homo sapiens, MCF7, 48 h
# Method: as §5, §6, §7, §8, §4
# [7] = system: PC-3 (prostate cancer); assay: MTT cytotoxic assay, PC-3; assay type: cell-based; details: Homo sapiens, PC-3, 48 h
# Method: as §5, §6, §7, §8, §4
# [8] = Enterococcus faecalis, ATCC10741, E. faecalis, microdilution, 24 h, read-out: IC50 ± S.E
Compound,"IC50 [1, 8]",IC50 [2],GI50 [3],GI50 [4],"GI50 ([5]; Homo sapiens, Skin fibroblast)",GI50 [6],GI50 [7],"IC50 ([1]; Enterococcus faecalis, ATCC10741, 24 h, read-out: IC50 ± S.E, E. faecalis, microdilution, 24 h)","IC50 ([1]; read-out: IC50 ± S.E, E. faecalis, microdilution, 24 h)",GI50 [5],GI50 ([5]; listed as 3-O-acetyl-PsU),GI50 ([3]; footnote ** unit),GI50 ([4]; footnote ** unit),"GI50 ([5]; Homo sapiens, Skin fibroblast, footnote ** unit)",GI50 ([6]; footnote ** unit),GI50 ([7]; footnote ** unit)
CC(=O)O[C@H]1[C@@H](O)[C@H](O)[C@H](Oc2c(C)c3c4c(c2O)[C@@H](C)CC[C@@H]4[C@@H](C)C[C@H]3C=C(C)C)O[C@H]1C [PsQ],7.38 ± 0.16 µM,3.3 ± 0.2 µM,5.82 ± 0.33 µM,7.66 ± 0.27 µM,4.47 ± 0.31 µM,8.44 ± 0.41 µM,7.81 ± 0.35 µM,–,–,–,–,–,–,–,–,–
CC(C)=C[C@@H]1C[C@H](C)[C@H]2CC[C@H](C)c3c(O[C@@H]4O[C@@H](C)[C@@H](O)[C@@H](O)[C@@H]4O)c(O)c(C)c1c32 [PsG],3.14 ± 0.22 µM,4.48 ± 0.18 µM,9.22 ± 0.45 µM,12 ± 0.36 µM,7.62 ± 0.38 µM,9.42 ± 0.43 µM,8.83 ± 0.54 µM,–,–,–,–,–,–,–,–,–
"CN[C@H](CC(C)C)C(=O)N[C@H]1C(=O)N[C@@H](CC(N)=O)C(=O)N[C@H]2C(=O)N[C@H]3C(=O)N[C@H](C(=O)N[C@H](C(=O)O)c4cc(O)cc(O)c4-c4cc3ccc4O)[C@H](O)c3ccc(c(Cl)c3)Oc3cc2cc(c3O[C@@H]2O[C@H](CO)[C@@H](O)[C@H](O)[C@H]2O[C@H]2C[C@](C)(N)[C@H](O)[C@H](C)O2)Oc2ccc(cc2Cl)[C@H]1O [Vancomycin, vancomycin, reference compound]",–,–,–,–,–,–,–,4.2 µM,4.21 ± 0.11 µM,–,–,–,–,–,–,–
CC(C)=CCC[C@H](C)[C@H]1CC[C@H](C)c2c1cc(C)c(O[C@@H]1OC[C@@H](O)[C@@H](O)[C@@H]1O)c2O [seco-PsJ],4.08 ± 0.19 µM,6.52 ± 0.12 µM,21.1 ± 0.37 µM,31.7 ± 0.32 µM,> 10 µM,28 ± 0.51 µM,37.2 ± 0.41 µM,–,–,15 ± 0.35 µM,–,–,–,–,–,–
"CC1(C)S[C@@H]2[C@H](NC(=O)Cc3ccccc3)C(=O)N2[C@H]1C(=O)O [Penicillin G, penicillin G, reference compound]",–,1.61 ± 0.08 µM,–,–,–,–,–,–,–,–,–,–,–,–,–,–
CC(C)=CCC[C@H](C)[C@H]1CC[C@H](C)c2c1cc(C)c(O[C@@H]1O[C@@H](C)[C@@H](O)[C@@H](O)[C@@H]1O)c2O [seco-PsK],3.82 ± 0.21 µM,4.2 ± 0.16 µM,15.8 ± 0.18 µM,13.3 ± 0.27 µM,8.28 ± 0.29 µM,11.5 ± 0.36 µM,13.6 ± 0.38 µM,–,–,–,–,–,–,–,–,–
CC(=O)OC1COC(Oc2c(C)c3c4c(c2O)C(C)CCC4C(C)CC3C=C(C)C)C(O)C1OC(C)=O (centres unmarked) [3-O-Ac-PsU],7.64 ± 0.16 µM,20.23 ± 0.19 µM,44.61 ± 0.35 µM,20.5 ± 0.48 µM,–,83.93 ± 0.39 µM,26.4 ± 0.31 µM,–,–,62.03 ± 0.45 µM,> 10 µM,–,–,–,–,–
CC(=O)O[C@@H]1[C@H](Oc2c(C)c3c4c(c2O)[C@@H](C)CC[C@@H]4[C@@H](C)C[C@H]3C=C(C)C)O[C@@H](C)[C@@H](O)[C@H]1O [PsS],20.2 ± 0.25 µM,3.89 ± 0.23 µM,13.8 ± 0.39 µM,33.5 ± 0.33 µM,–,26.2 ± 0.45 µM,52.05 ± 0.31 µM,–,–,–,–,–,–,–,–,–
CC(C)=C[C@@H]1C[C@H](C)[C@H]2CC[C@H](C)c3c(O)c(O[C@@H]4OC[C@@H](O)[C@@H](O)[C@@H]4O)c(C)c1c32 [PsT],4.38 ± 0.16 µM,5.39 ± 0.25 µM,14.6 ± 0.35 µM,24.2 ± 0.42 µM,> 10 µM,14.7 ± 0.46 µM,22 ± 0.46 µM,–,–,12.9 ± 0.37 µM,–,–,–,–,–,–
"CN[C@@H]1C[C@H]2O[C@@](C)([C@@H]1OC)n1c3ccccc3c3c4c(c5c6ccccc6n2c5c31)C(=O)NC4 [Staurosporine, staurosporine, reference compound]",–,–,–,–,–,–,–,–,–,–,–,0.1056 ± 0.00041 µM,0.04556 ± 0.00045 µM,0.0136 ± 0.00035 µM,0.1766 ± 0.00038 µM,0.06182 ± 0.00038 µM
CC(=O)OC1COC(Oc2c(C)c3c4c(c2O)C(C)CCC4C(C)CC3C=C(C)C)C(O)C1O (centres unmarked) [PsU],3.19 ± 0.25 µM,2.97 ± 0.17 µM,15.6 ± 0.32 µM,23.4 ± 0.4 µM,9.35 ± 0.34 µM,26.5 ± 0.46 µM,24.8 ± 0.34 µM,–,–,–,–,–,–,–,–,–
CC(C)=C[C@@H]1C[C@H](C)[C@H]2CC[C@H](C)c3c(O)c(O[C@@H]4O[C@@H](C)[C@@H](O)[C@@H](O)[C@@H]4O)c(C)c1c32 [PsP],37.35 ± 0.29 µM,14.9 ± 0.2 µM,10.3 ± 0.49 µM,17.9 ± 0.45 µM,> 10 µM,12.6 ± 0.45 µM,13.8 ± 0.58 µM,–,–,10.4 ± 0.42 µM,–,–,–,–,–,–
